Results published in the supplement of paper PMC10331698.
± gives the standard deviation of the averaged measurements.

Key:
Assay in all cases: level (log10 ratio to DMSO vehicle control); higher = higher biomarker level / cell amount than vehicle control
[1] = compound: C=C(C)C(=O)OCCC(F)(F)C(F)(F)C(F)(F)C(F)(F)C(F)(F)C(F)(F)F [6:2 Fluorotelomer methacrylate]; settings: in DMSO
Procedure: (§1)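 BioMAP Diversity Plus panel of 12 human primary cell co-culture systems (3C, 4H, LPS, SAg, BT, BF4T, BE3C, CASM3C, HDF3CGF, KF3CT, MyoF, Mphg). Compounds were added 1 h before stimulation and left for 24 h (MyoF 48 h; BT 72 h for soluble read-outs or 6 d for IgG). Biomarkers were read by ELISA, cytotoxicity by SRB, PBMC viability and proliferation by Alamar Blue. Each well value was divided by the mean of 8 DMSO control wells on the same plate and log10 transformed; duplicate blinded samples were tested at 4 concentrations.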

[2] = compound: C=CC(=O)OCC(F)(F)C(F)(F)C(F)(F)COC(=O)C=C [1H,1H,5H,5H-Perfluoro-1,5-pentanediol diacrylate]; settings: 6700 nM; in DMSO
Procedure: as §1

[3] = compound: COC(=O)C(F)(F)C(F)(F)OC(F)(C(F)(F)F)C(F)(F)OC(F)=C(F)F [Methyl perfluoro(3-(1-ethenyloxypropan-2-yloxy)propanoate)]; settings: in DMSO
Procedure: as §1

[4] = compound: FC(F)(F)C(F)(F)C(F)(F)C(F)(F)C(F)(F)C(F)(F)C(F)(F)I [1-Iodopentadecafluoroheptane]; settings: in DMSO
Procedure: as §1

Heptafluorobutyl iodide = compound: FC(F)(F)C(F)(F)C(F)(F)CI [Heptafluorobutyl iodide]; settings: in DMSO
Procedure: as §1

[5] = compound: O=C(O)C(F)(F)C(F)(F)C(F)(F)C(F)(F)C(F)(F)C(F)(F)C(F)(F)C(F)(F)C(F)(F)C(F)F [11-H-Perfluoroundecanoic acid]; settings: in DMSO
Procedure: as §1

[6] = compound: O=C(O)C=CC(F)(C(F)(F)F)C(F)(F)F [3-(Perfluoroisopropyl)-2-propenoic acid]; settings: in DMSO
Procedure: as §1

[7] = compound: O=S(=O)(O)C(F)(F)C(F)(F)C(F)(F)C(F)(F)C(F)(F)C(F)(F)C(F)(F)C(F)(F)C(F)(F)C(F)(F)F [Sodium perfluorodecanesulfonate]; settings: in DMSO
Procedure: as §1

Test System	level (log10) ([1]; 6700 nM)	level (log10) ([1]; 20000 nM)	level (log10) ([1]; 60000 nM)	level (log10) [2]	level (log10) ([3]; 6700 nM)	level (log10) ([3]; 20000 nM)	level (log10) ([4]; 6700 nM)	level (log10) ([4]; 20000 nM)	level (log10) (Heptafluorobutyl iodide; 6700 nM)	level (log10) (Heptafluorobutyl iodide; 20000 nM)	level (log10) (Heptafluorobutyl iodide; 60000 nM)	level (log10) ([5]; 6700 nM)	level (log10) ([5]; 20000 nM)	level (log10) ([6]; 6700 nM)	level (log10) ([6]; 20000 nM)	level (log10) ([6]; 60000 nM)	level (log10) ([7]; 1500 nM)	level (log10) ([7]; 4400 nM)	level (log10) ([7]; 13000 nM)	level (log10) ([7]; 40000 nM)
lMphg:CD69	-0.0125 ± 0.049	-0.046 ± 0.0028	-0.0915 ± 0.019	-0.0015 ± 0.0078	-0.067 ± 0.047	-0.0985 ± 0.07	-0.0455 ± 0.043	-0.079 ± 0.062	-0.048 ± 0.03	-0.033	-0.026 ± 0.025	-0.054 ± 0.0085	-0.039 ± 0.013	-0.0265 ± 0.022	-0.021 ± 0.035	0.0235 ± 0.049	-0.001 ± 0.014	-0.022 ± 0.052	-0.0095 ± 0.032	-0.084 ± 0.011
lMphg:CD106/VCAM-1	-0.024 ± 0.013	-0.007 ± 0.021	-0.021 ± 0.011	-0.0615 ± 0.025	-0.008 ± 0.025	-0.006 ± 0.025	-0.0025 ± 0.0064	-0.007 ± 0.017	-0.0115 ± 0.005	-0.022 ± 0.0085	-0.0175 ± 0.016	-0.0065 ± 0.0035	0.014 ± 0.023	0.001 ± 0.024	0.0125 ± 0.005	0.002 ± 0.034	-0.0065 ± 0.012	-0.0215 ± 0.018	-0.021 ± 0.0071	-0.0515 ± 0.0078
lMphg:CXCL8/IL-8	0.0275 ± 0.005	0.0205 ± 0.0092	0.0425 ± 0.026	0.03 ± 0.0099	0.135	0.211 ± 0.014	-0.018 ± 0.0071	0.0165 ± 0.019	-0.0335 ± 0.028	-0.0275 ± 0.00071	-0.0415 ± 0.0078	-0.0045 ± 0.0078	-0.031 ± 0.0042	-0.0225 ± 0.0021	-0.006 ± 0.0028	0.0415 ± 0.054	0.0185 ± 0.032	0.0015 ± 0.005	0.042 ± 0.0071	0.131 ± 0.013
lMphg:M-CSF	0.0215 ± 0.0064	-0.016 ± 0.0071	-0.0125 ± 0.025	-0.0245 ± 0.0035	-0.0325 ± 0.042	-0.0335 ± 0.035	-0.0015 ± 0.042	0.015 ± 0.0014	-0.026 ± 0.014	-0.0165 ± 0.005	-0.0245 ± 0.039	-0.019 ± 0.0071	-0.007 ± 0.018	-0.0105 ± 0.0064	-0.021 ± 0.014	-0.015 ± 0.025	-0.0215 ± 0.0035	-0.0255 ± 0.03	-0.013 ± 0.021	0.0255 ± 0.028
lMphg:SRB	-0.0065 ± 0.025	-0.0115 ± 0.015	-0.0175 ± 0.00071	0.001 ± 0.0014	0.0025 ± 0.011	0.0025 ± 0.011	-0.01 ± 0.0014	-0.0015 ± 0.0021	-0.0035 ± 0.0035	0.0065 ± 0.0092	0.0045 ± 0.0064	-0.004 ± 0.0057	0.017 ± 0.0099	-0.017 ± 0.0085	-0.012 ± 0.0099	-0.0085 ± 0.012	-0.0075 ± 0.012	-0.0025 ± 0.00071	-0.001 ± 0.0099	-0.011 ± 0.0099
lMphg:sIL-10	-0.01 ± 0.089	-0.0545 ± 0.035	0.0135 ± 0.0035	-0.13 ± 0.035	-0.0355 ± 0.0035	-0.102 ± 0.04	0.004 ± 0.081	-0.0995 ± 0.021	-0.0135 ± 0.036	0.0085 ± 0.013	-0.03 ± 0.078	-0.0875 ± 0.026	-0.0855 ± 0.0064	-0.055 ± 0.064	-0.048 ± 0.017	-0.082 ± 0.0071	-0.0235 ± 0.00071	-0.122 ± 0.019	-0.0595 ± 0.00071	-0.269 ± 0.06
